Assay results reported in US20260365670A1, “EGFR INHIBITORS AND USES THEREOF” (DIZAL (JIANGSU) PHARMACEUTICAL CO., LTD., priority 2022, published 2026).
Like-named read-outs stand apart in the source and are kept apart here.

Legend:
EGFR Exon19Del = molecular target: T1, EGFR Exon19Del (Homo sapiens, UniProt P00533, DEL746-750); experiment: Inhibition of EGFR Exon19Del biochemical enzymatic activity (HTRF); details: 1 mM ATP, 1 h at room temperature
T1 construct: purchased Carna Bio
Method in brief: (§1)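 Compounds at varying concentrations were tested against each EGFR form using 1 mM ATP and 1 μM TK Substrate-biotin. Reactions ran 1 h at room temperature in Mg2+/Mn2+ buffer with CHAPS, DTT and 0.5% DMSO. Time-resolved fluorescence gave IC50 by four-parameter fit.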

EGFR (C797S L858R) = molecular target: T2, EGFR (C797S L858R) (Homo sapiens, UniProt P00533, C797S/L858R); experiment: Inhibition of EGFR (C797S L858R) biochemical enzymatic activity (HTRF); details: EGFR (C797S L858R), 1 mM ATP, 1 h at room temperature
T2 construct: purchased signalchem
T2 sequence (P00533 25-1210 C797S/L858R): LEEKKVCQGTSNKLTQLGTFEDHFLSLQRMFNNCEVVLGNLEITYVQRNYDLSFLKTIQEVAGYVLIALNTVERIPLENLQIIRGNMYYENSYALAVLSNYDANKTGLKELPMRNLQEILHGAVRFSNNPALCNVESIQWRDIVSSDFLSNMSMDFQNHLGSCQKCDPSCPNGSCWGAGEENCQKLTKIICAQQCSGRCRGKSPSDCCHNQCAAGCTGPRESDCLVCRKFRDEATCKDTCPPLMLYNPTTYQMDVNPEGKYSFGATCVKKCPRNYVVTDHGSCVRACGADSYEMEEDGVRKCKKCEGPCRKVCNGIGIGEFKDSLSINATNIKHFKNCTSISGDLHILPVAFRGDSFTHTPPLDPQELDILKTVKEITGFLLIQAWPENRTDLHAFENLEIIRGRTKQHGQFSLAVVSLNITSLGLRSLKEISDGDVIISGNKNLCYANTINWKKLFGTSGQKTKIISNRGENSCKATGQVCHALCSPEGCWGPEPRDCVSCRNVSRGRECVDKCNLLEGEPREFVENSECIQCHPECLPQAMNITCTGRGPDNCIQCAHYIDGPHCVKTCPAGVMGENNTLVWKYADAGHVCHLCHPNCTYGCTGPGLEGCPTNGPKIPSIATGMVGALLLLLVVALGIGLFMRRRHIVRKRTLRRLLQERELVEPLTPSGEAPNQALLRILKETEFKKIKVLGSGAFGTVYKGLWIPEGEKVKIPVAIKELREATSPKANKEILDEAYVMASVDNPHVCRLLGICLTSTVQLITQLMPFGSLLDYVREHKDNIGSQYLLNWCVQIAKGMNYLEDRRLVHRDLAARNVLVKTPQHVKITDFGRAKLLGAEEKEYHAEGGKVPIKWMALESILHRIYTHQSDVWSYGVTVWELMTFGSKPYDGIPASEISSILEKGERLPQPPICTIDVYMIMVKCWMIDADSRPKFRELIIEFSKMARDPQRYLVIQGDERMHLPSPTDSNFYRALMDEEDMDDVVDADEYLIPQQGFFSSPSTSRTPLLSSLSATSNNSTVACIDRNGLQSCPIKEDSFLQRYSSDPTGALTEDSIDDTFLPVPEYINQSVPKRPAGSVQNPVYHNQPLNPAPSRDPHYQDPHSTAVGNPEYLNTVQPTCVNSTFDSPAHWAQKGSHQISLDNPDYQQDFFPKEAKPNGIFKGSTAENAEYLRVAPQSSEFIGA
Method in brief: as §1

EGFR Exon19Del/T790M = molecular target: T3, EGFR Exon19Del/T790M (Homo sapiens, UniProt P00533, DEL746-750/T790M); experiment: Inhibition of EGFR Exon19Del/T790M biochemical enzymatic activity (HTRF); details: EGFR Exon19Del/T790M, 1 mM ATP, 1 h at room temperature
T3 construct: purchased Carna Bio
T3 sequence (P00533 with tags, fused parts or gaps DEL746-750/T790M limits assumed): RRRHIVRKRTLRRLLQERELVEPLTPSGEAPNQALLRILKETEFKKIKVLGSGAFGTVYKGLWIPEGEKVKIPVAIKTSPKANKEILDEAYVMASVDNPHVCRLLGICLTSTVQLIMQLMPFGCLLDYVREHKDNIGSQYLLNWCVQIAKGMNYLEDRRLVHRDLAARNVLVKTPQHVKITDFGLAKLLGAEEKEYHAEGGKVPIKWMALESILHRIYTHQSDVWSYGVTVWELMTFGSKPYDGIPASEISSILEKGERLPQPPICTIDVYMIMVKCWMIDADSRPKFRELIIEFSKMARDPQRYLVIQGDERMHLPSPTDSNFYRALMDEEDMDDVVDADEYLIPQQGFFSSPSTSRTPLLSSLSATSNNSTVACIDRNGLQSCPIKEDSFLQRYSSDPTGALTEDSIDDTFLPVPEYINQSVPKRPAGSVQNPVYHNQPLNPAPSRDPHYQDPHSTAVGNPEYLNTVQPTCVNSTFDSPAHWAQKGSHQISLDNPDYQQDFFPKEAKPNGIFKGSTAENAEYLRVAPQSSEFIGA
Method in brief: as §1

EGFR L858R = molecular target: T4, EGFR L858R (Homo sapiens, UniProt P00533, L858R); experiment: Inhibition of EGFR L858R biochemical enzymatic activity (HTRF); details: 1 mM ATP, 1 h at room temperature
T4 construct: purchased Carna Bio
Method in brief: as §1

PC-9 = experiment: Cell proliferation assay, PC-9 cells (CellTiter-Glo, 72 hours); format: cell-based; details: PC9 cells, read-out: GI50 PC9
Method in brief: (§2)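 In RPMI1640 medium (PC-9 with 10% FBS), each cell line was seeded at its own density: Ba/F3 5000 and PC-9 500 per well. A compound series was added the next day, with a time-zero viability plate read in parallel. Percent proliferation was subtracted for G0 and referenced to DMSO, and GI50 was derived by curve fitting.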

[1] = molecular target: T5, EGFR[T790M/C797S/d746-750] (Homo sapiens, UniProt P00533, C797S/DEL746-750/T790M); experiment: Inhibition of EGFR[T790M/C797S/d746-750] biochemical enzymatic activity (HTRF); details: 1 mM ATP, 1 h at room temperature
T5 construct: purchased Carna Bio
T5 sequence (P00533 with tags, fused parts or gaps DEL746-750/T790M/C797S limits assumed): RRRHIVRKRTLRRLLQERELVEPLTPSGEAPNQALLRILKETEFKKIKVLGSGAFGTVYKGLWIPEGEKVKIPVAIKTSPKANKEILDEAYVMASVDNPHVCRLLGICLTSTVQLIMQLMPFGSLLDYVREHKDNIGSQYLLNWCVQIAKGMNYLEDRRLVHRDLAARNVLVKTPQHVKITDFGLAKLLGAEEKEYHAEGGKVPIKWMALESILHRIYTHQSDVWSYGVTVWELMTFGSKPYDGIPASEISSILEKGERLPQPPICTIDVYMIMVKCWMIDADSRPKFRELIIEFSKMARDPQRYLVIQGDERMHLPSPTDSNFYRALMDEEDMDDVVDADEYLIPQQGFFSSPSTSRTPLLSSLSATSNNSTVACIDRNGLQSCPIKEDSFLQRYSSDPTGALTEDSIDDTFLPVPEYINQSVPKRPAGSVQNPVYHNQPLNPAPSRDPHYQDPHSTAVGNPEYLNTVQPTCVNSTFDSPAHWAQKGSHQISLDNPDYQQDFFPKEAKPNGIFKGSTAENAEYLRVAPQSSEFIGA
Method in brief: as §1

EGFR L858R/T790M = molecular target: T6, EGFR L858R/T790M (Homo sapiens, UniProt P00533, L858R/T790M); experiment: Inhibition of EGFR L858R/T790M biochemical enzymatic activity (HTRF); details: EGFR L858R/T790M, 1 mM ATP, 1 h at room temperature
T6 construct: purchased Carna Bio
T6 sequence (P00533 25-1210 T790M/L858R): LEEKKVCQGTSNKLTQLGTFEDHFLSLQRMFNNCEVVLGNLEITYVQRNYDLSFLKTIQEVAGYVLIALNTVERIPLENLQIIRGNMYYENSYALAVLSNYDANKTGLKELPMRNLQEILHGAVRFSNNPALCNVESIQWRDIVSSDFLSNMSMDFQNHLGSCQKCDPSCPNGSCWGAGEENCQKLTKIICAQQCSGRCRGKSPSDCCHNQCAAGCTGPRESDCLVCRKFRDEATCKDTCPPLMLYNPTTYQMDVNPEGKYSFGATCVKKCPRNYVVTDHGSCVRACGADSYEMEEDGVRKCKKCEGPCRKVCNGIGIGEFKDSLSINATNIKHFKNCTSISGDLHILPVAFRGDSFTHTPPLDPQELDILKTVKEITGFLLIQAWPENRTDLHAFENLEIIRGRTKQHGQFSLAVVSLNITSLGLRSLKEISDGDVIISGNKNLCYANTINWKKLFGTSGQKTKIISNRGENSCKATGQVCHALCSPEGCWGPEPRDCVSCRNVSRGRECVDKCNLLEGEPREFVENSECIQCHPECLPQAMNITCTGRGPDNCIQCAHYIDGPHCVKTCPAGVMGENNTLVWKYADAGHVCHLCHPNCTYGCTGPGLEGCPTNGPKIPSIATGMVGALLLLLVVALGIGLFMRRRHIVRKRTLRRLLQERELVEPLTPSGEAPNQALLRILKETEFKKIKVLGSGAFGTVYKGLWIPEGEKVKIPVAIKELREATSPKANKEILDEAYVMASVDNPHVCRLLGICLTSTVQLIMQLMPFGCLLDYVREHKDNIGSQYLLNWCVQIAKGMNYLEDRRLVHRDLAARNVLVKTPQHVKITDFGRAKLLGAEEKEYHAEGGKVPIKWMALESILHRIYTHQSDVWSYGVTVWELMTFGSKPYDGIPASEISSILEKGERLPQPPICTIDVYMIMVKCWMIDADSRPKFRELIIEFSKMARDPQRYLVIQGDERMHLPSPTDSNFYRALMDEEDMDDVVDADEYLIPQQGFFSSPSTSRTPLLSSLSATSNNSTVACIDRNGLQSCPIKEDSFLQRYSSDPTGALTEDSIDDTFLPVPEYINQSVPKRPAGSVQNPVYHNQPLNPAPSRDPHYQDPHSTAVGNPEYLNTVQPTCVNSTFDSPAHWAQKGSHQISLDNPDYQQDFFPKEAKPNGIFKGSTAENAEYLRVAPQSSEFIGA
Method in brief: as §1

EGFR wild type = molecular target: T7, EGFR wild type (Homo sapiens, UniProt P00533); experiment: Inhibition of EGFR wild type biochemical enzymatic activity (HTRF); details: EGFR wild type, 1 mM ATP, 1 h at room temperature
T7 construct: purchased Carna Bio
Method in brief: as §1

EGFR[T790M/C797S/L858R] = molecular target: T8, EGFR[T790M/C797S/L858R] (Homo sapiens, UniProt P00533, C797S/L858R/T790M); experiment: Inhibition of EGFR[T790M/C797S/L858R] biochemical enzymatic activity (HTRF); details: EGFR[T790M/C797S/L858R], 1 mM ATP, 1 h at room temperature
T8 construct: purchased Carna Bio
Method in brief: as §1

EGFR (d746-750 C797S) = molecular target: T9, EGFR (d746-750 C797S) (Homo sapiens, UniProt P00533, C797S/DEL746-750); experiment: Inhibition of EGFR (d746-750 C797S) biochemical enzymatic activity (HTRF); details: EGFR (d746-750 C797S), 1 mM ATP, 1 h at room temperature
T9 construct: purchased signalchem
T9 sequence (P00533 with tags, fused parts or gaps DEL746-750/C797S limits assumed): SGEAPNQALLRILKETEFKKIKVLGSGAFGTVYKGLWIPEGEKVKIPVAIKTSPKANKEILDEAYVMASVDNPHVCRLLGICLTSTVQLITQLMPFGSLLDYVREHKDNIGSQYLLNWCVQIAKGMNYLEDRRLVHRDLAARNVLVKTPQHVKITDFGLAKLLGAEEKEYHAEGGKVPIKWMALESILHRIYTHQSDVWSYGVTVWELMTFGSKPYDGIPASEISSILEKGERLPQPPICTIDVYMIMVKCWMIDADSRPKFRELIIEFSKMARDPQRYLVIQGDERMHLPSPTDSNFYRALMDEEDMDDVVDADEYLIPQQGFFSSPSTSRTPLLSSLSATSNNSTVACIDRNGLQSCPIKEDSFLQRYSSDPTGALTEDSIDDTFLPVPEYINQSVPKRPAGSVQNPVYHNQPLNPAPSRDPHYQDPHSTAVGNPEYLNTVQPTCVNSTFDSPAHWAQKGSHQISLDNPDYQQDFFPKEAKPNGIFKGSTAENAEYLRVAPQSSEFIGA
Method in brief: as §1

[2] = test system: Ba/F3 cells expressing EGFR mutations; experiment: Cell proliferation assay, Ba/F3 cells expressing EGFR mutations (CellTiter-Glo, 72 hours); format: cell-based
Method in brief: as §2

[3] = EGFR Exon19Del, read-out: IC50 @Del19
[4] = EGFR[T790M/C797S/d746-750], read-out: IC50 @T790M - C797S - Del19
[5] = read-out: IC50 @T790M- C797S - L858R
[6] = Mus musculus, BaF3, 72 h, BaF3 cells, EGFR DEL19 - C797S, read-out: GI50 DEL19 - C797S/BaF3
[7] = Mus musculus, BaF3, 72 h, BaF3 cells, EGFR DEL19 - T790-C797S, read-out: GI50 DEL19 - T790-C797S/BaF3
[8] = Mus musculus, BaF3, 72 h, BaF3 cells, EGFR L858R - C797S, read-out: GI50 L858R - C797S/BaF3
[9] = Mus musculus, BaF3, 72 h, BaF3 cells, EGFR L858R - T790-C797S, read-out: GI50 L858R - T790-C797S/BaF3
[10] = Mus musculus, BaF3, 72 h, BaF3 cells, EGFR L858R - T790M, read-out: GI50 L858R - T790M/BaF3
[11] = Mus musculus, BaF3, 72 h, BaF3 cells, EGFR L858R, read-out: GI50 L858R/BaF3
[12] = Mus musculus, BaF3, 72 h, EGFR DEL19 - T790M, read-out: GI50 DEL19 - T790M
[13] = BaF3 cells, EGFR DEL19 - C797S, read-out: GI50 DEL19 - C797S/BaF3
[14] = BaF3 cells, EGFR DEL19 - T790-C797S, read-out: GI50 DEL19 - T790-C797S/BaF3
[15] = BaF3 cells, EGFR L858R - C797S, read-out: GI50 L858R - C797S/BaF3
[16] = BaF3 cells, EGFR L858R - T790-C797S, read-out: GI50 L858R - T790-C797S/BaF3
[17] = BaF3 cells, EGFR L858R - T790M, read-out: GI50 L858R - T790M/BaF3
[18] = BaF3 cells, EGFR L858R, read-out: GI50 L858R/BaF3
[19] = EGFR DEL19 - T790M, read-out: GI50 DEL19 - T790M

T1 sequence (P00533 with tags, fused parts or gaps DEL746-750 limits assumed): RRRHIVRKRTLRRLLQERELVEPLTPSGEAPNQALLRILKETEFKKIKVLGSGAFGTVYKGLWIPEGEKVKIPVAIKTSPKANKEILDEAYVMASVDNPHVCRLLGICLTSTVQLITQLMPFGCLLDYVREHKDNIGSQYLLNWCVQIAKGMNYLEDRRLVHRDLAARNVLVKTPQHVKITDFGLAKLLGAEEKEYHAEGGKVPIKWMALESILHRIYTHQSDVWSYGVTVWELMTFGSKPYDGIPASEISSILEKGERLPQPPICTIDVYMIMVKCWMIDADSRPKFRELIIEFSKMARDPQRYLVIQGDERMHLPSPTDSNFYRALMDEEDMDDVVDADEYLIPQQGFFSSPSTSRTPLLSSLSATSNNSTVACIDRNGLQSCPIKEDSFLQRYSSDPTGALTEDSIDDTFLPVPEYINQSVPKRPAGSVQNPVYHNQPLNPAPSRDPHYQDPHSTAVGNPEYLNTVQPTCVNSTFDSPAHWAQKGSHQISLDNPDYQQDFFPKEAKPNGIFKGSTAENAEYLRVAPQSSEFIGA

Structure (SMILES)	IC50 (EGFR Exon19Del; [3]) [nM]	IC50 (EGFR (C797S L858R); read-out: IC50 @L858-C797S) [nM]	IC50 (EGFR Exon19Del/T790M; read-out: IC50 @Del19-T790M) [nM]	IC50 (EGFR L858R; read-out: IC50 @L858R) [nM]	GI50 (PC-9; Homo sapiens, PC-9, 72 h) [nM]	IC50 [1, 4] [nM]	IC50 (EGFR L858R/T790M; read-out: IC50 @L858R-T790M) [nM]	IC50 (EGFR wild type; read-out: IC50 @WT) [nM]	IC50 (EGFR[T790M/C797S/L858R]; [5]) [nM]	IC50 (EGFR (d746-750 C797S); read-out: IC50 @Del19-C797S) [nM]	GI50 [2, 6] [nM]	GI50 [2, 7] [nM]	GI50 [2, 8] [nM]	GI50 [2, 9] [nM]	GI50 [2, 10] [nM]	GI50 [2, 11] [nM]	GI50 [2, 12] [nM]	GI50 (PC-9) [nM]	GI50 [2, 13] [nM]	GI50 [2, 14] [nM]	further results
Cc1cc2cc(n1)-c1cnn(C)c1OCCCCCn1c(nc3ccc4c(c31)CN(C1COC1)CC4)NC2=O [Example B18, 5,30-dimethyl-17-(oxetan-3-yl)-7-oxa-4,5,13,17,24,26,31-heptaazahexacyclo[26.3.1.0^{2,6}.0^{13,25}.0^{14,23}.0^{15,20}]dotriaconta-1(31),2(6),3,14,20,22,24,28(32),29-nonaen-27-one]	942	> 5000	33	> 5000	122	31	> 5000	> 5000	1990	> 500	86	32	2700	24	96	432	12				
Cc1cc2cc(n1)-c1cnn(C)c1OCCN1CC3CCC(C3)(C1)n1c(nc3ccc(N4CCC(N5CCN(C)CC5)C4)cc31)NC2=O (single isomer, unassigned) [Example B49B]	8	8	5.8	17		3.5	5.6	76	2.4	3.8								6	2	2	GI50 [2, 15]: 3 nM; GI50 [2, 16]: 2 nM; GI50 [2, 17]: 2 nM; GI50 [2, 18]: 2 nM; GI50 [2, 19]: 2 nM
Cc1cc2cc(n1)-c1cnn(C)c1OCCCCCn1c(nc3ccn(C)c(=O)c31)NC2=O [Example B20, 5,16,26-Trimethyl-7-oxa-4,5,13,16,20,22,27-heptaazapentacyclo[22.3.1.0^{2,6}.0^{13,21}.0^{14,19}]octacosa-1(27),2(6),3,14(19),17,20,24(28),25-octaene-15,23-dione]	> 5000	> 5000	685	> 5000	1280	122	> 5000	> 5000	> 5000	> 5000	487	258	10000	159	1020	2040	331				
Cc1cc2cc(n1)-c1cnn(C)c1OCCCCCn1c(nc3ccc4c(c31)CCN(CCN(C)C)C4)NC2=O [Example B23, 18-[2-(Dimethylamino)ethyl]-5,30-dimethyl-7-oxa-4,5,13,18,24,26,31-heptaazahexacyclo[26.3.1.0^{2,6}.0^{13,25}.0^{14,23}.0^{15,20}]dotriaconta-1(31),2(6),3,14,20,22,24,28(32),29-nonaen-27-one]					113						22	15	195	5.9		442	7.2				IC50 (EGFR Exon19Del; IC50 @Del19, EGFR Exon19Del): 16 nM; IC50 (EGFR (C797S L858R); IC50 @L858-C797S): 73 nM; IC50 (EGFR Exon19Del/T790M; IC50 @Del19-T790M): 3.8 nM; IC50 (EGFR L858R; IC50 @L858R): > 5000 nM; IC50 ([1]; IC50 @T790M - C797S - Del19, EGFR[T790M/C797S/d746-750]): 2.5 nM; IC50 (EGFR L858R/T790M; IC50 @L858R-T790M): 12 nM; IC50 (EGFR wild type; IC50 @WT): > 5000 nM; IC50 (EGFR[T790M/C797S/L858R]; IC50 @T790M- C797S - L858R): 5.4 nM; IC50 (EGFR (d746-750 C797S); IC50 @Del19-C797S): 6.5 nM
Cc1cc2cc(n1)-c1cnn(C)c1OCCN1CC3CCC(C3)(C1)n1c(nc3ccc(N4CCC(N5CCN(C)CC5)CC4)cc31)NC2=O (single isomer, unassigned) [Example B59A]	> 5000	> 5000	1140	> 5000		514	> 5000	> 5000	> 5000	> 5000								930	227	474	GI50 [2, 15]: 751 nM; GI50 [2, 16]: 144 nM; GI50 [2, 17]: 299 nM; GI50 [2, 18]: 1130 nM; GI50 [2, 19]: 788 nM
